Experimental data reported in the METLIN SMRT retention time set (Domingo-Almenara et al. 2019).

Assay: gradient 5% acetonitrile 3 min, to 50% in 2 min, to 85% in 15 min, held 3 min, 100 µL/min
Details: column: Zorbax Extend-C18 2.1 x 50 mm; eluents: water / acetonitrile, 0.1% formic acid
In short: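 Values are retention times taken from adduct peaks that software picked and an analyst inspected. The pure standards were run as mixtures of ~100 molecules on HPLC linked to a quadrupole time-of-flight mass spectrometer, in positive and negative ionization mode. A Zorbax Extend-C18 column (2.1 × 50 mm, 1.8 μm) was used at 100 μL/min with water and acetonitrile, each including 0.1% formic acid.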

Row | Compound | RP-LC retention time
1 | COc1ccc(N2C(=O)CC(N3CCC(C(N)=O)CC3)C2=O)c(OC)c1 (centres undefined) | 578 s
2 | C[C@@H]1CN(C(=O)c2ccoc2)C[C@H]1c1nc(-c2ccccc2)no1 | 879 s
3 | CC(O)CNC(=O)C1CCCN(c2ccc(Sc3ccc(Br)cc3)nn2)C1 (centres undefined) | 688 s
4 | O=C(Nc1ncc(S(=O)(=O)c2ccc([N+](=O)[O-])cc2)s1)c1ccccc1F | 866 s
5 | COc1cc(-c2nc3ccc(Cl)cn3c2Nc2ccccc2C)ccc1O | 720 s
6 | Cc1ccc(NC(=O)CN2C(=O)CCCc3cc(S(=O)(=O)N4CCCC4)ccc32)cc1Cl | 943 s
7 | Cn1cc(C2=C(c3cn(C4CCN(Cc5ccccn5)CC4)c4ccccc34)C(=O)NC2=O)c2ccccc21 | 753 s
8 | COc1ccc(C(=O)Nc2ccc(-c3cn4ccc(C)nc4n3)cc2)cc1OC | 604 s
9 | O=C(COc1ccccc1)N1[C@H]2CC[C@@H]1c1cnc(-c3ccccc3)nc1C2 | 952 s
10 | O=C(c1ccc2c(=O)n(-c3ccccc3)c(N3CCCC3)nc2c1)N1CCN(c2ccccn2)CC1 | 617 s
11 | NC(=O)C1CCN(C(=O)Cn2c(-c3cccs3)cc3ccccc32)CC1 | 744 s
12 | Cc1nc(-c2cn(C(C)C)c3ncccc23)sc1C(=O)NCc1ccccc1F | 1030 s
13 | Cc1cn(C)c(CC(=O)NCCCN2CCCC(C)C2)c1C(=O)O (centres undefined) | 586 s
14 | COc1ccc(Cl)c2c(=O)c3c([nH]c12)CCN(CC(=O)NCc1ccccc1F)C3 | 625 s
15 | CC(=O)OCCNc1nc(-c2ccccc2)nc2ccccc12 | 623 s
16 | Cc1nc(-c2ccc(F)cc2)sc1C(=O)NC(C)C | 890 s
17 | CCC(CC)C(=O)NCCc1c[nH]c2ccc(C)cc12 | 860 s
18 | CCc1cc(-c2csc(S(=O)(=O)NCc3ccc(Br)cc3)c2)on1 | 1020 s
19 | O=C(CCn1cnc2cc(-c3noc(C4CC(=O)N(c5ccccc5)C4)n3)ccc21)N1CCCC1 (centres undefined) | 659 s
20 | O=C(c1cc(=O)c2ccccc2o1)N1CC2CC(C1)c1cccc(=O)n1C2 (centres undefined) | 598 s
21 | Cc1nn(-c2nc3ccccc3[nH]2)c2c1C(=O)CC(c1ccc(C(C)C)cc1)C2 (centres undefined) | 1230 s
22 | Cc1ccc(S(=O)(=O)N2CCCC2c2nc(-c3cccc(Cl)c3)no2)cc1C (centres undefined) | 1270 s
23 | COc1cc(NC(=O)COc2cc(C)nc(N3CCN(c4ccccc4)CC3)n2)cc(OC)c1 | 821 s

Row | Compound | RP-LC retention time
24 | CCCCNC(=O)CC1CCN(C(=O)c2[nH]c(C)c(C(=O)OC)c2C)CC1 | 689 s
25 | O=C(Cn1cnc2c(nnn2Cc2ccc(F)cc2)c1=O)N1CCCc2ccccc21 | 822 s
26 | Cc1ccc(C)c(N2CCN(C(=O)C3CCN(S(=O)(=O)c4cn(C)cn4)CC3)CC2)c1 | 832 s
27 | COc1ccc(-c2noc(C3CCCN3C(=O)c3ccccc3F)n2)cc1 (centres undefined) | 952 s
28 | O=C(c1cn(-c2cc(Nc3ccccc3)ncn2)cn1)N1CCOCC1 | 676 s
29 | COc1ccc(C2CC(=O)N(c3ccc(C)c(F)c3)C(=O)C2)cc1OC | 867 s
30 | COCCNCc1ccc(-c2cccc(Cl)c2)o1 | 647 s
31 | CCCN(CCC)C(=O)c1cc(NC(=O)CC)cnc1N1CCNCC1 | 588 s
32 | Cn1c(=O)c2cc(C(=O)Nc3ccccc3C(N)=O)cnc2n(-c2ccccc2)c1=O | 788 s
33 | CCC1CN(C(=O)N2CCC(C(=O)NCCCN3CCN(C)CC3)CC2)c2cc(C)ccc2O1 (centres undefined) | 617 s
34 | COc1ccc(Br)cc1CNC(=O)CCC(=O)N1Cc2cccn2-c2ccccc21 | 993 s
35 | CCC(=O)N(C)c1nc2ccccc2n(CC(=O)Nc2c(C)cc(C)cc2C)c1=O | 822 s
36 | CC(C)CNC(=O)c1ccc2c(c1)Sc1ncccc1C(=O)N2C1CC1 | 752 s
37 | CCN(CC)S(=O)(=O)c1ccc2c(c1)CC(C(=O)N1CCOCC1)N2C(C)=O (centres undefined) | 663 s
38 | Cc1nn(CCCC(=O)NCCN(C)C)c(=O)c2c(-n3cccc3)n(-c3ccccc3)nc12 | 664 s
39 | CSCc1csc(NC(=O)COc2ccc(Cl)cc2)n1 | 883 s
40 | CC1CN2C=NC(N3CCN(C(=O)Nc4ccc5c(c4)CCC5)CC3)=CC2=N1 (centres undefined) | 655 s
41 | COc1ccc(S(=O)(=O)N2CC(F)(F)C[C@H]2c2nnc(C)o2)cc1 | 788 s
42 | O=C(CN1C(=O)CSc2cccn2-c2ccccc21)N1CCN(c2ccccn2)CC1 | 607 s
43 | NS(=O)(=O)c1ccc(CCNC(=O)c2cn3cc(Cl)ccc3n2)cc1 | 660 s
44 | O=C(Cc1ccc(Cl)cc1)N1CCN(c2cc(-c3ccccc3)[nH]n2)CC1 | 841 s
45 | Cc1ccc(C)c(NC(=O)C2CCCN(S(=O)(=O)c3c[nH]c(C(=O)N4CCCCCC4)c3)C2)c1 (centres undefined) | 923 s
46 | CC(C)(NC(=O)c1ccoc1)c1nc2c(c(C(N)=O)n1)OCO2 | 818 s

Row | Compound | RP-LC retention time
47 | NC(=O)C1CCN(C2=NC(=O)/C(=C\c3ccc(-c4ccc(F)cc4)o3)S2)CC1 | 671 s
48 | O=C1CN=C(c2ccc[nH]2)c2cc(Cl)ccc2N1 | 650 s
49 | O=C(COc1ccc(Cl)cc1)NCc1ccc2c(c1)OCCCO2 | 870 s
50 | O=C(Cn1cccn1)Nc1nc(-c2cccnc2)cs1 | 537 s
51 | CCn1cc(C(=O)N2C[C@@H](COCC3CC3)[C@H](c3nc(C)no3)C2)cn1 | 714 s
52 | O=C(Cc1nnc(-c2ccc3ncccc3c2)o1)NCc1ccccc1Cl | 711 s
53 | COc1ccc(C(=O)Nc2cnc(N3CCCC3)nc2)cc1 | 691 s
54 | COc1cc(CN(C(=O)c2ccc(OC(C)C)cc2)C2CCS(=O)(=O)C2)cc(OC)c1OC (centres undefined) | 868 s
55 | Cc1ccc(-c2cc3c4nnc(SCC(=O)Nc5cccc(C)c5C)n4ccn3n2)cc1C | 1000 s
56 | CCCCN1CCc2nc(N3CCN(c4ccccc4F)CC3)ncc2C1 | 715 s
57 | O=C(CCc1c(-c2ccccc2)nc2ccccn12)Nc1ccccc1C(F)(F)F | 691 s
58 | O=C(NCc1ccco1)c1ccc2c(c1)CC(=O)N2Cc1ccc(F)cc1 | 794 s
59 | CCn1c(C(=O)NC2CCCCCC2)cc2sc(Cl)cc21 | 1290 s
60 | COc1ccc(NC(=O)Cn2cc(-c3ccccc3C)c(N3CCOCC3)n2)c(OC)c1 | 959 s
61 | O=C(O)c1cc(-c2c[nH]c3ccccc23)nc2ccccc12 | 624 s
62 | O=C(c1cccnc1)N1CCC(Oc2cc(N3CCCCC3)ncn2)C1 (centres undefined) | 651 s
63 | Cc1cc(C)c(NS(=O)(=O)c2cc(-c3nc(C)cs3)sc2C)c(C)c1 | 1190 s
64 | CN1C(=O)C(CC(=O)N2CCCCC2)Sc2ncccc21 (centres undefined) | 658 s
65 | Cn1nc(-c2nc(C3CC3)no2)c2c1CCN(C(=O)Nc1ccc(Cl)cc1)C2 | 882 s
66 | Cc1ccc(Nc2c(-c3c(F)cccc3Cl)nc3cccc(C)n23)cc1 | 763 s
67 | CC(C)c1noc(-c2cc(=O)n(CC(=O)Nc3cc(F)ccc3F)c3ccccc23)n1 | 1040 s
68 | CC1CCCCN1c1nc(-c2ccc(C(C)(C)C)cc2)nc2ccccc12 (centres undefined) | 1050 s
69 | COc1ccc2c(CCNC(=O)Nc3ccc(Cl)cc3)c[nH]c2c1 | 711 s

Row | Compound | RP-LC retention time
70 | CN(CC1CCOCC1)C(=O)Nc1ccccc1Br | 768 s
71 | O=C(Cn1ccn2nc(-c3ccc(F)cc3)c(CO)c2c1=O)Nc1ccc(Br)cc1 | 891 s
72 | O=C(c1cc(-c2ccco2)on1)N1CCC2(CC1)OCCS2 | 822 s
73 | CCOc1ccc(CC(=O)NC(C)C(=O)Nc2nc3ccccc3[nH]2)cc1OCC (centres undefined) | 668 s
74 | Cn1c(=O)n([C@H]2CCN(S(=O)(=O)c3ccccc3Cl)C2)c2ncccc21 | 840 s
75 | CCN1C(=O)COc2ccc(-c3csc(NC(=O)c4ccccc4OC)n3)cc21 | 1040 s
76 | Cc1nc(-c2cn(C(C)C)c3ncccc23)sc1C(=O)N1CCC(C)CC1 | 999 s
77 | O=C(NCCn1ncc2c(=O)n(Cc3cccc(Cl)c3)cnc21)c1cc2ccccc2o1 | 780 s
78 | Cc1cc(Br)ccc1NC(=O)Cn1cnc2c(nc3n2CCCCC3)c1=O | 711 s
79 | COc1ccc(CNC(=O)NC2CCN(c3ccc(F)c(C)c3)C2=O)cc1 (centres undefined) | 783 s
80 | CCNC(=O)N1CCC(CCOc2cccnc2)CC1 | 579 s
81 | Cc1noc2ncnc(N3CCC(C(=O)N4CCCc5ccccc54)CC3)c12 | 865 s
82 | COc1ccc(NC(=O)C2CCc3nc(N4CCOCC4)ncc3C2)cc1F (centres undefined) | 718 s
83 | COc1cccc(NC(=O)N2CCN(Cc3nc4ccc(Cl)cc4o3)CC2)c1 | 726 s
84 | CCn1ccc(C(=O)N2CCCn3nc(-c4ccc(OC)cc4)cc3C2)n1 | 756 s
85 | Fc1ccc(CN2CCc3nc(N4CCN(c5ccccc5F)CC4)ncc3C2)cc1F | 806 s
86 | CCn1cc(-c2ccccc2)cc1C(=O)NC(C)c1ccccn1 (centres undefined) | 749 s
87 | COc1ccc(Cl)cc1N1CC(c2nc(-c3ccc4c(c3)OCO4)no2)CC1=O (centres undefined) | 941 s
88 | O=C(Cc1nnc(-c2ccncc2)o1)NCc1ccc(C(F)(F)F)cc1 | 718 s
89 | Cc1cc(Cl)ccc1NC(=O)C1CCCN(c2ncnc3c2nc2n3CCCCC2)C1 (centres undefined) | 879 s
